Assay [1] deals with T1, Progesterone receptor (Homo sapiens, UniProt P06401).
T1 sequence (P06401 whole entry): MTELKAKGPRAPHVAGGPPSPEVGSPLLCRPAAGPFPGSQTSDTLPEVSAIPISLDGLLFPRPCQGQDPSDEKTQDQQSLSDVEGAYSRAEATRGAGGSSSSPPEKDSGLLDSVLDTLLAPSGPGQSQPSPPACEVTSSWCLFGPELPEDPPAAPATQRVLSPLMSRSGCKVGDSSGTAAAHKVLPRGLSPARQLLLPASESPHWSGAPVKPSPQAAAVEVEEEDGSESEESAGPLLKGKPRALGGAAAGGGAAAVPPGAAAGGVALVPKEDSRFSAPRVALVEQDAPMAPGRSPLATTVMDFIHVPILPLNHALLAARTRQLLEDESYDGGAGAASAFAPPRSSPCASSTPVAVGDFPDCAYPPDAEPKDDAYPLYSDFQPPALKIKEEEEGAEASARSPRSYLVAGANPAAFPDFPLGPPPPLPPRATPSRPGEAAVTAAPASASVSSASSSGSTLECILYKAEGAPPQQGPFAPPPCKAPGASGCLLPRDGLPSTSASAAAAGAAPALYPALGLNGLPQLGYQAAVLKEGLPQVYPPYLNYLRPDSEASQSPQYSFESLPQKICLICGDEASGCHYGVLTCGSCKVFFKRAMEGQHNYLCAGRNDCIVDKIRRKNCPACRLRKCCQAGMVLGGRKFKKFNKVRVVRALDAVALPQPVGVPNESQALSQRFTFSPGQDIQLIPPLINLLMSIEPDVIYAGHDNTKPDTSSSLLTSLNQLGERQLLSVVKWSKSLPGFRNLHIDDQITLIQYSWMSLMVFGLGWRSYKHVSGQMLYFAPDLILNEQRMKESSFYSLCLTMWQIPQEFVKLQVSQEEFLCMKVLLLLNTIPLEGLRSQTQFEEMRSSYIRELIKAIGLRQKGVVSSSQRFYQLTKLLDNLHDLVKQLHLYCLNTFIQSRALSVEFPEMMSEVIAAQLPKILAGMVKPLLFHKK
The experiment in a line: Agonistic activity against human progesterone receptor in CV-1 cells. The format is functional, cell-based.

The target in assay [2] is T1, Progesterone receptor. Nature of the assay: Agonistic activity against human progesterone receptor in T47D breast cancer cells. The format is functional, cell-based.
For assay [3], the target named is T2, Glucocorticoid receptor (Homo sapiens, UniProt P04150).
T2 sequence (P04150 whole entry): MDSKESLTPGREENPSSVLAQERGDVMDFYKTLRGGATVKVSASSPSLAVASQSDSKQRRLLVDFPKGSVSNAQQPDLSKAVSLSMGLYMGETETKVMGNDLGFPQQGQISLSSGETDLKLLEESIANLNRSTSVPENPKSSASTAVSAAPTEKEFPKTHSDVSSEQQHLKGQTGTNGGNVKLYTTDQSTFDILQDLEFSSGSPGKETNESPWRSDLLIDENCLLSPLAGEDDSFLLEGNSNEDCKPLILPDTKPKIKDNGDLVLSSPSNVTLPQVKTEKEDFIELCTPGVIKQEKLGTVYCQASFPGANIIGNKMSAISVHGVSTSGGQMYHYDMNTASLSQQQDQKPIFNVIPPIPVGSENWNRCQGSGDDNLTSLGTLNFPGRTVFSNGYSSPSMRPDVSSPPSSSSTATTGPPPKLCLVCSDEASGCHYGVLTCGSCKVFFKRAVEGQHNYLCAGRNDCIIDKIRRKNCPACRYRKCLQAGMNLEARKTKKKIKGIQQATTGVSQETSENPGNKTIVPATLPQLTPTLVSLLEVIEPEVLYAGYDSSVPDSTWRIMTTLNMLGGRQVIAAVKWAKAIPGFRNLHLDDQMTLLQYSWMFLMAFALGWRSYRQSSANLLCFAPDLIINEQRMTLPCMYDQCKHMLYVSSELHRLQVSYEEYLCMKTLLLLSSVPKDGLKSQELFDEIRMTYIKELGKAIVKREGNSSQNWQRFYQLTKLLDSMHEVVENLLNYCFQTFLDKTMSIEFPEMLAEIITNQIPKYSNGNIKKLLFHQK
Description: Inhibition of human glucocorticoid receptor at 10e-12 to 10e-5 M

The species named for assay [4] is Homo sapiens. Nature of the assay: Relative potency for human androgen and progesterone receptors.
The target in assay [5] is T2, Glucocorticoid receptor. The experiment in a line: Inhibition of Dexamethasone binding to human glucocorticoid receptor expressed in baculovirus […] cells.
The species entered for assay [6] is Homo sapiens. Nature of the assay: Relative potency for human estrogen and progesterone receptors.
The target of another assay is T3, Androgen receptor (Homo sapiens, UniProt P10275).
T3 sequence (P10275 whole entry): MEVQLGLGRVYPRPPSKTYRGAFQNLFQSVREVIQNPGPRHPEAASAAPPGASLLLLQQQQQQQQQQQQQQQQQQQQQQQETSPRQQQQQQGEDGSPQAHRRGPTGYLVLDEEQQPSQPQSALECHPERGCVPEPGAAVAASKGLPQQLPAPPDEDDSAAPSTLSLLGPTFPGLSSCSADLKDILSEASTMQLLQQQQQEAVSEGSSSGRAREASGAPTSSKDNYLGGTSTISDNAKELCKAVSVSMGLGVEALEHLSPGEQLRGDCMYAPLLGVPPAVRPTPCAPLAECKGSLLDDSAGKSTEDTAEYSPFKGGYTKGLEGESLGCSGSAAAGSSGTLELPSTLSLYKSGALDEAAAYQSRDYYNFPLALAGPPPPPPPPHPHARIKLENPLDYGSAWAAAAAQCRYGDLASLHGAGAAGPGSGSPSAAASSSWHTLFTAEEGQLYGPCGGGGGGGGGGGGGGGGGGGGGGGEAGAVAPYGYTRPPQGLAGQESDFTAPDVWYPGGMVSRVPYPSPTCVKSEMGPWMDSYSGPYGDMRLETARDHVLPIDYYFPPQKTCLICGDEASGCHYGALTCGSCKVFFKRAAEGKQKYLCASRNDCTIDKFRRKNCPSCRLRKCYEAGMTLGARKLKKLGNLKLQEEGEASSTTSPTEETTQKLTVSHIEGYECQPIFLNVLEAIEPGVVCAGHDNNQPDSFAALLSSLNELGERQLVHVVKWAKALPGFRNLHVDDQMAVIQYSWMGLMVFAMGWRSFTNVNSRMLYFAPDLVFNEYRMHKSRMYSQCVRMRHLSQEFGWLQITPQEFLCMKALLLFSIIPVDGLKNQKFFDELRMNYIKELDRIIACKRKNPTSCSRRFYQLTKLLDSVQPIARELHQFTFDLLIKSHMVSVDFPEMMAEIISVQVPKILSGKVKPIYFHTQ
The experiment in a line: biochemical.

A word on the EC50: it is the concentration at which the effect is half-maximal. A word on the IC50: it is the midpoint of a concentration-inhibition curve. Lower therefore signals greater potency. As usually defined, the Ki is a dissociation constant, usually derived from enzyme kinetics or from competition with a known ligand. Lower therefore signals a stronger hold on the target.

Description for Androgen receptor: Inhibition of DHT binding to human androgen receptor expressed in baculovirus SF-12 cells

Take `CC1=CC(C)(C)Nc2ccc3c(c21)/C(=C/c1ccccc1)Oc1c(F)cccc1-3`: the EC50 on Progesterone receptor [1] was 2.1 nM; on Progesterone receptor [2], 11 nM. Also, on Glucocorticoid receptor [3], the IC50 amounted to 250 nM. For the same compound, the Ratio was 429 in the assay listed under Homo sapiens [4] and over 1000 in the assay filed under Homo sapiens [6]. The Ki at Glucocorticoid receptor [5] was 321 nM; at Androgen receptor, 1460 nM.
In turn, `CC1=CC(C)(C)Nc2ccc3c(c21)/C(=C/c1ccncc1C)Oc1ccc(F)cc1-3` came in with an EC50 on Progesterone receptor [2] of 4.6 nM. Further, at Glucocorticoid receptor [3], inhibition was half-maximal at 245 nM (IC50). The values for the Ratio in the assay listed under Homo sapiens [4] and in the assay listed under Homo sapiens [6] were over 1000 and 255, respectively. Further, the figures for the Ki at Glucocorticoid receptor [5] and at Androgen receptor were 232 nM and over 1000 nM, respectively.
Regarding `CCc1ccccc1/C=C1\Oc2ccc(F)cc2-c2ccc3c(c21)C(C)=CC(C)(C)N3`, the values for the 50% effective concentration (EC50) at Progesterone receptor [1] and on Progesterone receptor [2] were 2 nM and 18 nM, respectively. In addition, on Glucocorticoid receptor [3], the IC50 was found to be 77 nM. Besides, the Ratio in the assay listed under Homo sapiens [4] and in the assay filed under Homo sapiens [6] was over 1000 each time. In addition, the Ki was 270 nM at Glucocorticoid receptor [5] and 1590 nM on Androgen receptor.
For `CC1=CC(C)(C)Nc2ccc3c(c21)/C(=C/c1ccsc1)Oc1ccc(F)cc1-3`, the EC50 at Progesterone receptor [1] was 0.71 nM; at Progesterone receptor [2] it was 5.5 nM. Moreover, at Glucocorticoid receptor [3], the IC50 came out at 100 nM. Further, the Ratio in the assay listed under Homo sapiens [4] is 303; in the assay listed under Homo sapiens [6], over 1000. Further, the values for the Ki on Glucocorticoid receptor [5] and on Androgen receptor were 84 nM and 669 nM, respectively.
As for `CC1=CC(C)(C)Nc2ccc3c(c21)/C(=C/c1ccccc1C)Oc1c(F)cccc1-3`, the EC50 was 1.4 nM at Progesterone receptor [1] and 9 nM at Progesterone receptor [2]. The same compound yielded an IC50 against Glucocorticoid receptor [3] of 297 nM. The Ratio in the assay listed under Homo sapiens [4] and in the assay listed under Homo sapiens [6] was over 1000 in each case. Moreover, the Ki on Glucocorticoid receptor [5] was 232 nM; on Androgen receptor, 960 nM.
